Source: paper PMC6199744, “Development of Chemical Proteomics for the Folateome and Analysis of the Kinetoplastid Folateome” (ACS Infectious Diseases, 2018)

Test system: L. major lysate proteins
Test: Multitargeted bead mixture chemoproteomics, single concentration competition, proteome-wide
Format: binding
Conditions: for fold change: vehicle control = 1

Compound: Nc1nc2c(c(=O)[nH]1)N(C=O)C(CNc1ccc(C(=O)N[C@@H](CCC(=O)O)C(=O)O)cc1)CN2 (stereo partly drawn) [LEU, leucovorin]
- fold change vs vehicle control (protein LMJF.15.0690 HY[…], CONSERVED): 1.14
- fold change (protein LMJF.15.1010 GLUTAMATE DEHYDROGENASE): 0.98
- fold change (protein LMJF.15.1190 HYPOTHETICAL PROTEIN, CONSERVED (cyclic nucleotide-binding domain containing protein, putative)): 0.96
- fold change vs vehicle control (protein LMJF.16.0520 HYPOTHETICAL PROTEIN, CONSERVED): 1.1
- fold change vs vehicle control (protein LMJF.16.0540 ASPARTATE CARBAMOYLTRANSFERASE, PUTATIVE): 0.98
- fold change relative to vehicle control (protein LMJF.16.0760, TRANSALDOLASE, PUTATIVE): 1.22
- fold change vs vehicle control (protein LMJF.16.0940 DYNEIN LIGHT CHAIN, PUTATIVE): 1.06
- fold change relative to vehicle control (protein LMJF.16.1180, COATOMER DELTA SUBUNIT-LIKE PROTEIN): 1.21
- fold change relative to vehicle control (protein LMJF.16.1320, CYTOCHROME C, PUTATIVE): 2.28
- fold change relative to vehicle control (protein LMJF.16.1420, HY[…], CONSERVED): 1.01
- fold change relative to vehicle control (protein LMJF.17.0081, […] 1-ALPHA): 1.09
- fold change relative to vehicle control (protein LMJF.18.0270, GLYCOGEN SYNTHASE KINASE, PUTATIVE): 0.57
- fold change (protein LMJF.18.0580 P[…]-COA HYDRATASE, PUTATIVE): 1.02
- fold change relative to vehicle control (protein LMJF.18.0680, CITRATE SYNTHASE, PUTATIVE): 1.15
- fold change vs vehicle control (protein LMJF.18.1010 DYNEIN LIGHT CHAIN 2B, CYTOPLASMIC, PUTATIVE): 0.99
- fold change vs vehicle control (protein LMJF.18.1210 PROLYL-TRNA SYNTHETASE, PUTATIVE,BI[…]-TRNA SYNTHETASE, PUTATIVE): 1.38
- fold change vs vehicle control (protein LMJF.18.1370 HEAT SHOCK PROTEIN, PUTATIVE): 0.99
- fold change (protein LMJF.19.0200 ADP,ATP CARRIER PROTEIN 1, MIT[…], PUTATIVE): 1.01
- fold change vs vehicle control (protein LMJF.19.1120 PROTEASOME REGULATORY NON-ATP-ASE SUBUNIT, PUTATIVE): 0.93
- fold change vs vehicle control (protein LMJF.19.1160 HYPOTHETICAL PROTEIN, CONSERVED): 0.87
- fold change vs vehicle control (protein LMJF.19.1560 INOSINE-5'-MONOPHOSPHATE DEHYDROGENASE): 1.06
- fold change relative to vehicle control (protein LMJF.19.1620, POTASSIUM VOLTAGE-GATED CHANNEL, PUTATIVE): 1.08
- fold change vs vehicle control (protein LMJF.20.1280 SMALL MYRISTOYLATED PROTEIN 4, PUTATIVE): 0.97
- fold change (protein LMJF.21.0810 METHIONYL-TRNA SYNTHETASE, PUTATIVE): 1.03
- fold change (protein LMJF.21.1450 ARGININE N-METHYLTRANSFERASE, TYPE II, PUTATIVE): 1.01
- fold change vs vehicle control (protein LMJF.21.1830 […] 5 SUBUNIT, PUTATIVE,20S […] ALPHA 5, (PUTATIVE)): 1.06
- fold change (protein LMJF.22.0230 AMINO ACID PERMEASE, PUTATIVE): 0.86
- fold change vs vehicle control (protein LMJF.22.0570 PROTEASOME REGULATORY ATPASE SUBUNIT 1, PUTATIVE): 0.98
- fold change vs vehicle control (protein LMJF.22.0730 HY[…], CONSERVED): 1.05
- fold change (protein LMJF.22.0770 NADH-CYTOCHROME B5 REDUCTASE, PUTATIVE): 1.02
- fold change relative to vehicle control (protein LMJF.23.0020, HY[…], CONSERVED): 1.09
- fold change relative to vehicle control (protein LMJF.23.0040, PEROXIDOXIN): 1.41
- fold change relative to vehicle control (protein LMJF.23.0080, HY[…], CONSERVED): 1.07
- fold change (protein LMJF.23.0210 ATP-BINDING CASSETTE PROTEIN SUBFAMILY C, MEMBER 1, PUTATIVE): 0.88
- fold change (protein LMJF.23.0370 CYTOCHROME C OXIDASE SUBUNIT 10, PUTATIVE): 0.88
- fold change relative to vehicle control (protein LMJF.23.0540, ACETYL-COA SYNTHETASE, PUTATIVE): 1.24
- fold change vs vehicle control (protein LMJF.23.0560 KINESIN, PUTATIVE): 1.03
- fold change vs vehicle control (protein LMJF.23.1410 HY[…], CONSERVED): 1.01
- fold change relative to vehicle control (protein LMJF.24.0070, HYPOTHETICAL PROTEIN, CONSERVED): 0.98
- fold change (protein LMJF.24.0140 ANKYRIN/TPR REPEAT PROTEIN): 0.96
- fold change (protein LMJF.24.0400 HY[…], CONSERVED (TPR repeat, putative)): 1.02
- fold change relative to vehicle control (protein LMJF.24.1510, IGE-DEPENDENT HISTAMINE-RELEASING FACTOR, PUTATIVE): 1.54
- fold change relative to vehicle control (protein LMJF.24.1630, SUCCINATE DEHYDROGENASE FLAVOPROTEIN, PUTATIVE): 1.06
- fold change relative to vehicle control (protein LMJF.24.2060, TRANSKETOLASE): 0.92
- fold change relative to vehicle control (protein LMJF.25.0010, BETA […] TRANSFERASE): 1.41
- fold change relative to vehicle control (protein LMJF.25.0910, CYCLOPHILIN A): 2.65
- fold change vs vehicle control (protein LMJF.25.1130 […] OXIDASE VII, PUTATIVE): 1.08
- fold change relative to vehicle control (protein LMJF.25.1180, ATPASE BETA SUBUNIT, PUTATIVE): 1.04
- fold change vs vehicle control (protein LMJF.25.1610 HY[…], CONSERVED): 1.03
- fold change vs vehicle control (protein LMJF.25.1620 HYPOTHETICAL PROTEIN, CONSERVED): 0.97
- fold change (protein LMJF.25.2340 SERINE/THREONINE-PROTEIN KINASE, PUTATIVE,PROTEIN KINASE, PUTATIVE): 0.76
- fold change relative to vehicle control (protein LMJF.26.0630, HY[…], CONSERVED): 1.23
- fold change vs vehicle control (protein LMJF.26.1240 HEAT SHOCK PROTEIN 70-RELATED PROTEIN): 1.1
- fold change (protein LMJF.26.1710 CYTOCHROME C OXIDASE SUBUNIT V, PUTATIVE): 0.98
- fold change vs vehicle control (protein LMJF.26.2480 CDP-DIACYLGLYCEROL--INOSITOL 3-PHOSPHATIDYLTRANSFERASE, PUTATIVE): 0.94
- fold change vs vehicle control (protein LMJF.26.2560 HYPOTHETICAL PROTEIN, CONSERVED): 0.91
- fold change vs vehicle control (protein LMJF.27.0190 […] 7 SUBUNIT, PUTATIVE): 1.06
- fold change (protein LMJF.27.0650 HYPOTHETICAL PROTEIN, CONSERVED): 0.98
- fold change (protein LMJF.27.0700 HYPOTHETICAL PROTEIN, CONSERVED): 0.69
- fold change vs vehicle control (protein LMJF.27.0760 GTP-binding protein homologue): 1.15
- fold change vs vehicle control (protein LMJF.27.1060 CYSTEINE DESULFURASE, PUTATIVE): 1.03
- fold change vs vehicle control (protein LMJF.27.1110 MITOCHONDRIAL RNA BINDING PROTEIN 1,GBP21, MRP1): 0.96
- fold change (protein LMJF.27.1250 HYPOTHETICAL PROTEIN, CONSERVED (Serine-threonine kinase receptor-associated protein, putative)): 0.88
- fold change relative to vehicle control (protein LMJF.27.1390, 60S ACIDIC RIBOSOMAL SUBUNIT PROTEIN, PUTATIVE): 1.11
- fold change (protein LMJF.27.1460 PROTEASOME REGULATORY NON-ATP-ASE SUBUNIT 3, PUTATIVE): 0.97
- fold change vs vehicle control (protein LMJF.28.0110 […] 3 SUBUNIT, PUTATIVE): 1.08
